Patent US20060154970A1, “Alanines compounds, method of preparing them and their use” (priority 2003, published 2006)

Experiments:
[1] = test system: 3T3-L1 preadipocytes; experiment: Insulin-sensitizing activity in 3T3-L1 preadipocyte model, triglyceride accumulation in cells as indication of differentiation; assay type: cell-based; details: for The Percentage of Triglyceride Increased in 3T3-L1 Cells / activation at 0.01 µM / activation at 0.1 µM / activation at 1 µM: average data in 3 pores (Rosiglitazone: n = 22, mean ± SE); for insulin-sensitizing activity (in words): summary of table 2; for activation at 0.01 µM / activation at 0.1 µM / activation at 1 µM: Mus musculus, 3T3-L1, read-out: The Percentage of Triglyceride Increased in 3T3-L1 Cells
Procedure: Insulin-sensitizing agents can promote the differentiation of preadipocytes toward adipocytes, thus insulin-sensitizing agents could be identified according to the differentiation of pre-adipocytes. Following the methods reported in the literature [Kletzin B F. Mol. Pharm. 1991, 41, 393], the insulin-sensitizing activities of the compounds of formula (I) of the present invention were evaluated in 3T3-L1 pradipocyte model with triglyceride accumulation in cells as the indication of differentiation.
The 3T3-L1 preadipocytes were incubated in DMEM (Dulbecco's Modified Eagle's Medium) containing 10% NBS (newborn calf serum) and subcultured every 3 days. The calls were transferred to 24-pore plates, and after the pores were filled completely the cells were treated with IBMX (isobutylmethylxanthine) (0.5 mmol/L), DEX (dexamethasone) (1 μmol/L) and insulin (1.0 μmol/L) for 48 h. Different amounts of test compounds were incubated with the cells until the end of the experiment. Cells were collected and the contents of triglyceride and protein therein were determined by colorimetry. Enhancements of triglyceride in cells after drug-administrating were calculated.
The positive control group was rosiglitazone, and the solvent control group was a culturing medium containing 0.1% of DMSO. The enhancement of triglyceride in cells was determined in three different concentrations (0.01, 0.1, 1 μmol/L) of the tested compounds.

SMILES	melting point	The Percentage of Triglyceride Increased in 3T3-L1 Cells ([1]; concentration 0.01 μmol/L)	The Percentage of Triglyceride Increased in 3T3-L1 Cells ([1]; concentration 0.1 μmol/L)	The Percentage of Triglyceride Increased in 3T3-L1 Cells ([1]; concentration 1 μmol/L)	insulin-sensitizing activity (in words) [1]	activation at 0.01 µM ([1]; concentration 0.01 μmol/L)	activation at 0.1 µM ([1]; concentration 0.1 μmol/L)	activation at 1 µM ([1]; concentration 1 μmol/L)
Cc1oc(-c2ccccc2)nc1CCOc1ccc(C[C@H](NC(=O)[C@H]2CC[C@H](C(C)C)CC2)C(=O)O)cc1 (relative stereo) [Compound 1, (2S)-2-[N-(trans-4-isopropylcyclohexylcarbonyl)amino]-3-[4-[2-(5-methyl-2-phenyl-4-oxazole)ethoxy]phenyl]propionic acid]	–	1.56%	21.18%	47.09%	stronger insulin-sensitizing activity	–	–	–
Cc1oc(-c2ccccc2)nc1CCOc1ccc(C[C@@H](NC(=O)[C@H]2CC[C@H](C(C)C)CC2)C(=O)O)cc1 [Compound 2, (2R)-2-[N-(trans-4-isopropylcyclohexylcarbonyl)amino]-3-[4-[2-(5-methyl-2-phenyl-4-oxazolyl)ethoxy]phenyl]propionic acid]	151 to 153 °C (dec.)	–	–	–	stronger insulin-sensitizing activity	10.7%	16.5%	30.7%
CC(C)[C@H]1CC[C@H](C(=O)N[C@@H](Cc2ccc(O)cc2)C(=O)O)CC1 [Compound 17, (2S)-2-[N-(trans-4-isopropylcyclohexylcarbonyl)amino]-3-(4-hydroxyphenyl)propionic acid]	156 to 157 °C	–	–	–	–	0.22%	10.8%	0.85%
CC(C)[C@H]1CC[C@H](C(=O)N[C@@H](Cc2ccc(OCCN(C)c3nc4ccccc4o3)cc2)C(=O)O)CC1 [Compound 3, (2S)-2-[N-(trans-4-isopropylcyclohexylcarbonyl)amino]-3-[4-[2-[N-methyl-N-(2-benzoxazolyl)amino]ethoxy]phenyl]propionic acid]	179 to 180 °C (dec.)	–	–	–	–	-0.37%	6.7%	20%
CC(C)[C@H]1CC[C@H](C(=O)N[C@@H](Cc2ccc(OCCn3ccc4ccccc43)cc2)C(=O)O)CC1 [Compound 5, (2S)-2-[N-(trans-4-isopropylcyclohexylcarbonyl)amino]-3-[4-[2-(1-indolyl)ethoxy]phenyl]propionic acid]	–	–	–	–	–	-1.54%	-4.64%	-6.92%
CCCCOc1ccc(C[C@H](NC(=O)[C@H]2CC[C@H](C(C)C)CC2)C(=O)O)cc1 [Compound 11, (2S)-2-[N-(trans-4-isopropylcyclohexylcarbonyl)amino]-3-(4-butoxyphenyl)propionic acid]	–	–	–	–	–	0%	0.36%	2.23%
CCCCOc1ccc(C[C@@H](NC(=O)[C@H]2CC[C@H](C(C)C)CC2)C(=O)O)cc1 [Compound 12, (2R)-2-[N-(trans-4-isopropylcyclohexylcarbonyl)amino]-3-(4-butoxyphenyl)propionic acid]	120 to 121 °C	–	–	–	–	–	–	–
CC(C)[C@H]1CC[C@H](C(=O)N[C@H](Cc2ccc(OCCN(C)c3nc4ccccc4o3)cc2)C(=O)O)CC1 [Compound 4, (2R)-2-[N-(trans-4-isopropylcyclohexylcarbonyl)amino]-3-[4-[2-[N-methyl-N-(2-benzoxazolyl)amino]ethoxy]phenyl]propionic acid]	179 to 180 °C	–	–	–	–	-4.77%	5.05%	11%

The next lines start with results.

melting point	SMILES	The Percentage of Triglyceride Increased in 3T3-L1 Cells ([1]; concentration 0.01 μmol/L)	The Percentage of Triglyceride Increased in 3T3-L1 Cells ([1]; concentration 0.1 μmol/L)	The Percentage of Triglyceride Increased in 3T3-L1 Cells ([1]; concentration 1 μmol/L)	insulin-sensitizing activity (in words) [1]	activation at 0.01 µM ([1]; concentration 0.01 μmol/L)	activation at 0.1 µM ([1]; concentration 0.1 μmol/L)	activation at 1 µM ([1]; concentration 1 μmol/L)
171 to 172 °C	CC(C)[C@H]1CC[C@H](C(=O)N[C@H](Cc2ccc(OCc3ccc(C(F)(F)F)cc3)cc2)C(=O)O)CC1 [Compound 8, (2R)-2-[N-(trans-4-isopropylcyclohexylcarbonyl)amino]-3-[4-(4-trifluoromethylbenzyloxy)phenyl]propionic acid]	–	–	–	–	–	–	–
168 to 170 °C	CCOc1ccc(C[C@H](NC(=O)[C@H]2CC[C@H](C(C)C)CC2)C(=O)O)cc1 [Compound 13, (2S)-2-[N-(trans-4-isopropylcyclohexylcarbonyl)amino]-3-(4-ethoxyphenyl)propionic acid]	–	–	–	–	1.89%	1.83%	-4.74%
140 to 142 °C (dec.)	CC(C)[C@H]1CC[C@H](C(=O)N[C@H](Cc2ccc(OCc3ccccc3)cc2)C(=O)O)CC1 [Compound 10, (2R)-2-[N-(trans-4-isopropylcyclohexylcarbonyl)amino]-3-(4-benzyloxyphenyl)propionic acid]	–	–	–	–	–	–	–
149 to 151 °C	COc1ccc(C[C@H](NC(=O)[C@H]2CC[C@H](C(C)C)CC2)C(=O)O)cc1 [Compound 15, (2S)-2-[N-(trans-4-isopropylcyclohexylcarbonyl)amino]-3-(4-methoxyphenyl)propionic acid]	–	–	–	–	-0.21%	5.99%	5.04%
171 to 172 °C	CC(C)[C@H]1CC[C@H](C(=O)N[C@@H](Cc2ccc(OCc3ccc(C(F)(F)F)cc3)cc2)C(=O)O)CC1 [Compound 7, (2S)-2-[N-(trans-4-isopropylcyclohexylcarbonyl)amino]-3-[4-(4-trifluoromethylbenzyloxy)phenyl]propionic acid]	–	–	–	–	11.8%	5.8%	4.68%
156 to 157 °C	CC(C)[C@H]1CC[C@H](C(=O)N[C@H](Cc2ccc(O)cc2)C(=O)O)CC1 [Compound 18, (2R)-2-[N-(trans-4-isopropylcyclohexylcarbonyl)amino]-3-(4-hydroxyphenyl)propionic acid]	–	–	–	–	–	–	–
140 to 142 °C (dec.)	CC(C)[C@H]1CC[C@H](C(=O)N[C@@H](Cc2ccc(OCc3ccccc3)cc2)C(=O)O)CC1 [Compound 9, (2S)-2-[N-(trans-4-isopropylcyclohexylcarbonyl)amino]-3-(4-benzyloxyphenyl)propionic acid]	–	–	–	–	6%	3.35%	-0.69%
168 to 170 °C	CCOc1ccc(C[C@@H](NC(=O)[C@H]2CC[C@H](C(C)C)CC2)C(=O)O)cc1 [Compound 14, (2R)-2-[N-(trans-4-isopropylcyclohexylcarbonyl)amino]-3-(4-ethoxyphenyl)propionic acid]	–	–	–	–	–	–	–
158 to 160 °C	CC(C)[C@H]1CC[C@H](C(=O)N[C@@H](Cc2ccc(OCCN(C)c3ccccn3)cc2)C(=O)O)CC1 [Compound 19, (2S)-2-[N-(trans-4-isopropylcyclohexylcarbonyl)amino]-3-[4-[2-[N-methyl-N-(2-pyridyl)amino]ethoxyl]phenyl]propionic acid]	–	–	–	–	-1.46%	-2.24%	-1.62%
